According to US8148410B2, “Thiophene derivatives as agonists of S1P1/EDG1” (Actelion Pharmaceuticals Ltd., priority 2007, dated 2012):

What follows are compounds tested against recombinant human S1P1 receptor (Homo sapiens, UniProt P21453) (assay: GTPγS assay to determine EC50 values). Conditions: agonist concentration inducing 50% of maximal specific 35S-GTPγS binding; membranes of CHO cells expressing recombinant human S1P1.
Sequence of recombinant human S1P1 receptor (P21453 whole entry): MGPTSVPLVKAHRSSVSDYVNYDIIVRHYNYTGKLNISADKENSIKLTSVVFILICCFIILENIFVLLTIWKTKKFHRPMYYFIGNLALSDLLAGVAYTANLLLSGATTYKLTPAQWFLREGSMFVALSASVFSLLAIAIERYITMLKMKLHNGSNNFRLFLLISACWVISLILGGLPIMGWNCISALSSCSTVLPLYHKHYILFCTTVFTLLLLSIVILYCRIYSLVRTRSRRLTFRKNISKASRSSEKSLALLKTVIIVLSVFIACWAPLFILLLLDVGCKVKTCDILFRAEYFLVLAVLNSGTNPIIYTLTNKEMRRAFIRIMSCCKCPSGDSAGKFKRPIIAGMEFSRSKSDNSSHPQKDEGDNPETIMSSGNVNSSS
Assay type: biochemical
Experimental: GTPγS Assay to Determine EC50 Values
GTPγS binding assays are performed in 96 well microtiter plates (Nunc, 442587) in a final volume of 200 μl, using membrane preparations of CHO cells expressing recombinant human S1P1 receptor. Assay conditions are 20 mM Hepes (Fluka, 54461), 100 mM NaCl (Fluka, 71378), 5 mM MgCl2 (Fluka, 63064), 0.1% BSA (Calbiochem, 126609), 1 μM GDP (Sigma, G-7127), 2.5% DMSO (Fluka, 41644), 50 pM ^35S-GTPγS (Amersham Biosciences, SJ1320). The pH is 7.4. Test compounds are dissolved and diluted in 100% DMSO and pre-incubated at room temperature for 30 min in 150 μl of the above assay buffer, in the absence of ^35S-GTPγS. After addition of 50 μl of ^35S-GTPγS, the assay is incubated for 1 h at rt. The assay is terminated by transfer of the reaction mixture to a Multiscreen plate (Millipore, MAHFC1H60) using a cell harvester from Packard Biosciences, and the plates are washed with ice-cold 10 mM Na2HPO4/NaH2PO4 (70%/30%), dried, sealed at the bottom and, after addition of 25 μl MicroScint20 (Packard Biosciences, order #6013621), sealed on the top. Membrane-bound ^35S-GTPγS is measured with a TopCount from Packard Biosciences.
Specific binding is determined by subtracting non-specific binding from maximal binding. Maximal binding is the amount of cpm bound to the Multiscreen plate in the presence of 10 μM of S1P. Non-specific binding is the amount of binding in the absence of an agonist in the assay.
For CNCc1sc(-c2nc(-c3cc(C)c(OCC(O)CNC(=O)CO)c(C)c3)no2)cc1C (racemic) [Example 21], the EC50 was 3.8 nM.
In the case of CCc1cc(-c2noc(-c3cc(C)c(CN(CC)CC)s3)n2)cc(C)c1OC[C@@H](O)CNCCO [Example 210], the EC50 is reported as 9.6 nM.
CCc1cc(-c2nnc(-c3cc(C)c(CN(C)C)s3)o2)cc(C)c1OC[C@@H](O)CNC(=O)CO [Example 150, N-((2S)-3-{4-[5-(5-Dimethylaminomethyl-4-methyl-thiophen-2-yl)-[1,3,4]oxadiazol-2-yl]-2-ethyl-6-methyl-phenoxy}-2-hydroxy-propyl)-2-hydroxy-acetamide] showed an EC50 of 5.4 nM.
CCc1cc(-c2noc(-c3cc(C)c(CN(CC)CC)s3)n2)cc(C)c1OC[C@@H](O)CNCC(=O)O [Example 220] was tested, and the EC50 was 3.4 nM.
Work on CCc1cc(-c2noc(-c3cc(C)c(CN(CC)CC)s3)n2)cc(C)c1CCC(=O)NCCO [Example 136] yielded an EC50 of 18.5 nM.
For CCN(CC)Cc1sc(-c2nc(-c3cc(C)c(OC[C@@H](O)CNC(=O)CO)c(Cl)c3)no2)cc1C [Example 195, N-((2S)-3-{4-[5-(5-Diethylaminomethyl-4-methyl-thiophen-2-yl)-[1,2,4]oxadiazol-3-yl]-2-chloro-6-methyl-phenoxy}-2-hydroxy-propyl)-2-hydroxy-acetamide], the EC50 was 0.2 nM.
With CCCCN(C)Cc1sc(-c2nc(-c3cc(C)c(OC[C@@H](O)CNC(=O)CO)c(CC)c3)no2)cc1C [Example 54] the EC50 was 2 nM.
CCc1cc(-c2noc(-c3cc(C)c(CN(CC)CC)s3)n2)cc(C)c1OC[C@@H](O)CNC(=O)CO [Example 56] showed an EC50 of 2.5 nM.
Compound CCc1cc(-c2noc(-c3cc(C)c(CN(CC)CC)s3)n2)cc(C)c1OC[C@@H](O)CNC(=O)CN [Example 225] has an EC50 of 1.1 nM.
For CCc1cc(-c2noc(-c3cc(C)c(CN(CC)CC)s3)n2)cc(C)c1OC[C@@H](O)CNC(CO)CO [Example 214], the EC50 was 1.7 nM.
CCCN(CC)Cc1sc(-c2nc(-c3cc(C)c(CCC(=O)NCCC(=O)O)c(CC)c3)no2)cc1C [Example 119] was tested, and the EC50 was 2.1 nM.
With CCN(CC)Cc1sc(-c2nc(-c3cc(C)c(OC[C@@H](O)CNC(=O)CO)c(OC)c3)no2)cc1C [Example 194, N-((2S)-3-{4-[5-(5-Diethylaminomethyl-4-methyl-thiophen-2-yl)-[1,2,4]oxadiazol-3-yl]-2-methoxy-6-methyl-phenoxy}-2-hydroxy-propyl)-2-hydroxy-acetamide] the EC50 was 2.5 nM.
Work on CCc1cc(-c2noc(-c3cc(C)c(CN(C)CC)s3)n2)cc(C)c1OC[C@@H](O)CNC(=O)CO [Example 52] yielded an EC50 of 2.2 nM.
In the case of CCc1cc(-c2nc(-c3cc(C)c(CN(CC)CC)s3)no2)cc(C)c1OC[C@@H](O)CNC(=O)CO [Example 149], the EC50 is reported as 1.6 nM.
With CCN(CC)Cc1sc(-c2nc(-c3cc(C)c(OC[C@@H](O)CO)c(Cl)c3)no2)cc1C [Example 198, (2S)-3-{2-Chloro-4-[5-(5-diethylaminomethyl-4-methyl-thiophen-2-yl)-[1,2,4]oxadiazol-3-yl]-6-methyl-phenoxy}-propane-1,2-diol] the EC50 was 2.1 nM.
CCCCN(CC)Cc1sc(-c2nc(-c3cc(C)c(OC[C@@H](O)CNC(=O)CO)c(CC)c3)no2)cc1C [Example 59] gave an EC50 of 7 nM.
Compound Cc1cc(-c2nc(-c3cc(C)c(OCC(O)CNC(=O)CO)c(C)c3)no2)sc1CN1CCCC1 (racemic) [Example 32] has an EC50 of 11.2 nM.
For CCN(CC)Cc1sc(-c2nc(-c3cc(C)c(N)c(Cl)c3)no2)cc1C [Example 187, 2-Chloro-4-[5-(5-diethylaminomethyl-4-methyl-thiophen-2-yl)-[1,2,4]oxadiazol-3-yl]-6-methyl-phenylamine], the EC50 was 22 nM.
In the case of CCCN(C)Cc1sc(-c2nc(-c3cc(C)c(OCC(O)CNC(=O)CO)c(C)c3)no2)cc1C (racemic) [Example 28], the EC50 is reported as 0.2 nM.
CCN(CC)Cc1sc(-c2nc(-c3ccc(OCC(O)CNC(=O)CO)cc3C)no2)cc1C (stereo not shown) [Example 196, N-(3-{4-[5-(5-Diethylaminomethyl-4-methyl-thiophen-2-yl)-[1,2,4]oxadiazol-3-yl]-3-methyl-phenoxy}-2-hydroxy-propyl)-2-hydroxy-acetamide] showed an EC50 of 13 nM.
CCN(CCO)Cc1sc(-c2nc(-c3cc(C)c(OCC(O)CNC(=O)CO)c(C)c3)no2)cc1C (racemic) [Example 31] was tested, and the EC50 was 8.1 nM.
CCCN(C)Cc1sc(-c2nc(-c3cc(C)c(CCC(=O)NCCC(=O)O)c(CC)c3)no2)cc1C [Example 115] gave an EC50 of 10.5 nM.
In the case of CCc1cc(-c2noc(-c3cc(C)c(CN(CC)CC)s3)n2)cc(C)c1OC[C@@H](O)CNC(=O)CNC [Example 226], the EC50 is reported as 3.5 nM.
Compound CCCN(CC)Cc1sc(-c2nc(-c3cc(C)c(OC[C@@H](O)CNC(=O)CO)c(CC)c3)no2)cc1C [Example 57] has an EC50 of 2.8 nM.
Cc1cc(-c2nc(-c3cc(C)c(OCC(O)CNC(=O)CO)c(C)c3)no2)sc1CN1CCCCC1 (racemic) [Example 33] showed an EC50 of 9.8 nM.
In the case of Cc1cc(-c2nc(-c3cc(C)c(OCC(O)CNC(=O)CO)c(C)c3)no2)sc1CN(C)CCO (racemic) [Example 30], the EC50 is reported as 10.2 nM.
For CCN(Cc1sc(-c2nc(-c3cc(C)c(OC[C@@H](O)CNC(=O)CO)c(C)c3)no2)cc1C)C(C)C [Example 92, N-{(2S)-3-[4-(5-{5-[(Ethyl-isopropyl-amino)-methyl]-4-methyl-thiophen-2-yl}-[1,2,4]oxadiazol-3-yl)-2,6-dimethyl-phenoxy]-2-hydroxy-propyl}-2-hydroxy-acetamide], the EC50 was 0.5 nM.
CCc1cc(-c2noc(-c3cc(C)c(CN(CC)CC)s3)n2)cc(C)c1OC[C@@H](O)CN1CCC(C(=O)O)C1 (stereo partly drawn) [Example 205, 1-((2S)-3-{4-[5-(5-Diethylaminomethyl-4-methyl-thiophen-2-yl)-[1,2,4]oxadiazol-3-yl]-2-ethyl-6-methyl-phenoxy}-2-hydroxy-propyl)-pyrrolidine-3-carboxylic acid] was tested, and the EC50 was 18.4 nM.
In the case of CCCN(C)Cc1sc(-c2nc(-c3cc(C)c(CCC(=O)NCC(=O)OC)c(CC)c3)no2)cc1C [Example 98], the EC50 is reported as 17.3 nM.
Compound CCN(CC)Cc1sc(-c2nc(-c3cc(C)c(CCC(=O)O)c(C)c3)no2)cc1C [Example 44] has an EC50 of 12.1 nM.
For CCc1cc(-c2noc(-c3cc(C)c(CN(CC)C(C)C)s3)n2)cc(C)c1OC[C@@H](O)CNC(=O)CO [Example 58], the EC50 was 3.3 nM.
Compound CCCN(C)Cc1sc(-c2nc(-c3cc(C)c(OC[C@@H](O)CNC(=O)CO)c(CC)c3)no2)cc1CC [Example 84] has an EC50 of 0.8 nM.
CCCN(C)Cc1sc(-c2nc(-c3cc(C)c(CCC(=O)O)c(CC)c3)no2)cc1CC [Example 86] was tested, and the EC50 was 9.1 nM.
In the case of Cc1cc(-c2nc(-c3cc(C)c(OC[C@@H](O)CNC(=O)CO)c(C)c3)no2)sc1CN(C)C [Example 87, N-((2S)-3-{4-[5-(5-Dimethylaminomethyl-4-methyl-thiophen-2-yl)-[1,2,4]oxadiazol-3-yl]-2,6-dimethyl-phenoxy}-2-hydroxy-propyl)-2-hydroxy-acetamide], the EC50 is reported as 0.6 nM.
CCc1cc(-c2nc(-c3cc(C)c(OC[C@H](O)CO)c(CC)c3)no2)sc1CN(C)C [Example 81] showed an EC50 of 2.6 nM.
With Cc1cc(-c2nc(-c3cc(C)c(OCC(O)CNC(=O)CO)c(C)c3)no2)sc1CNC(C)C (racemic) [Example 24] the EC50 was 11 nM.
Compound CCc1cc(-c2noc(-c3cc(C)c(CN(CC)CC)s3)n2)cc(C)c1CCC(=O)NCC(=O)O [Example 106] has an EC50 of 8.6 nM.
CCc1cc(-c2noc(-c3cc(C)c(CN(CC)CC)s3)n2)cc(C)c1OC[C@@H](O)CNC(=O)CCO [Example 223] showed an EC50 of 6.2 nM.

Each compound was assayed on circulating lymphocytes (assay: Assessment of in vivo efficacy: circulating lymphocytes after oral administration). Conditions: 3 h after oral administration of 10 mg/kg, compared to animals treated with vehicle only; mean ± SEM.
Set-up: species or system normotensive male Wistar rats
Experimental: Assessment of In Vivo Efficacy
The efficacy of the compounds of Formula (I) is assessed by measuring the circulating lymphocytes after oral administration of 3 to 30 mg/kg of a compound of Formula (I) to normotensive male Wistar rats. The animals are housed in climate-controlled conditions with a 12 h-light/dark cycle, and have free access to normal rat chow and drinking water. Blood is collected before and 3, 6 and 24 h after drug administration. Full blood is subjected to hematology using Advia Hematology system (Bayer Diagnostics, Zürich, Switzerland).
All data are presented as mean±SEM. Statistical analyses are performed by analysis of variance (ANOVA) using Statistica (StatSoft) and the Student-Newman-Keuls procedure for multiple comparisons. The null hypothesis is rejected when p<0.05.
Work on CCc1cc(-c2noc(-c3cc(C)c(CN(CC)CC)s3)n2)cc(C)c1OC[C@@H](O)CNC(=O)CO [Example 56] yielded a Lymphocyte counts of −68 ± 1%.
For CCCN(C)Cc1sc(-c2nc(-c3cc(C)c(OCC(O)CNC(=O)CO)c(C)c3)no2)cc1C (racemic) [Example 28], the Lymphocyte counts was −68 ± 3%.
